Assay results taken from US20220071924A1, “TREATMENT OF OCULAR DISEASES WITH OPHTHALMIC TAPINAROF COMPOSITIONS” (Sol-Gel Technologies Ltd., priority 2019, published 2022).

Test system: Demodex folliculorum
Assay: In vitro killing of live Demodex on epilated eyelashes, observed by light microscopy over 90 minutes
Details: for Kill Rate: 90 min observation; for Average Time to Death: value 90 denotes no effect
Source text: In Vitro Activity of Tapinarof Based Formulations in Killing Demodex folliculorum The purpose of this study is to evaluate the effectiveness of a composition comprising Tapinarof in killing Demodex for clinical treatment. […] Following informed consent, one to four lashes with significant cylindrical dandruff were selected for epilation. Lashes were firmly grasped near the base and gently teased out with a slow circular motion to prevent cylindrical dandruff and Demodex from being left behind on the lid margin. Epilated lashes were then placed onto a glass slide and the number of live organisms under light microscopy was then recorded. Lashes with live Demodex were then included in the study. Each lash obtained was then assigned to one of 13 study reagents (Table 1). […] Observation of the study material with the Demodex took place over 90 minutes with checks under light microscopy every five minutes for cessation of Demodex activity. Organism death was recorded when all rotary movement of Demodex appendages ceased. At least five lashes with live Demodex were evaluated for each reagent. Results were recorded in Microsoft Excel and statistical analysis for significant differences in average time to death were done with two-tailed t-test using the same software (Table 1). The value 90 was used to denote no effect.

[1] = tapinarof 0.1% in 50% isopropyl alcohol
[2] = tapinarof 0.5% in 50% isopropyl alcohol
[3] = tapinarof 1% in 50% isopropyl alcohol
[4] = reagent at 50%, checks every 5 min
[5] = reagent at 80%, checks every 5 min

SMILES	Kill Rate [4] [%]	Average Time to Death (reagent at 50%) [min]	Kill Rate [5] [%]	Average Time to Death (reagent at 80%) [min]	further results
CC(C)c1c(O)cc(/C=C/c2ccccc2)cc1O [Tapinarof, 3,5-dihydroxy-4-isopropyl-trans-stilbene]	–	–	–	–	Kill Rate [1]: 8%; Average Time to Death [1]: 80 min; Kill Rate [2]: 29%; Average Time to Death [2]: 10.82 min; Kill Rate [3]: 33%; Average Time to Death [3]: 60 min; in vitro killing effect against Demodex mites (in words) (tapinarof at the 0.1% concentration (p=0.34)): a significant effect was not observed; in vitro killing effect against Demodex mites (in words) (tapinarof at the 0.5% and 1% concentrations): moderate in vitro killing effect
CCO [Ethanol]	100	33.64	–	–	–
CCOCCOCCO [Transcutol]	100	35	100	15	–
CC(C)=O [Acetone]	33	82.5	29	9.7	–
CC(C)O [Isopropyl alcohol]	0	>90	–	–	–
CC#N [Acetonitrile]	88	31.43	100	5.83	–
